From a melting point compilation (Tetko et al.; mined from patent text by program, amines drawn as free bases though some values may be those of a salt)

Row | melting point [°C] | SMILES
1 | 275 to 278 | O=S(=O)(O)CCc1cccnc1
2 | 120 | CN(C(=O)CN(C(=O)CNC(=O)Nc1cccc(CO)c1)c1ccccc1)c1ccccc1
3 | 189 to 192 | O=c1c(CCCCCCCc2ccncc2)cc2cccnc2n1-c1cccc([N+](=O)[O-])c1
4 | 118 to 119 | Nc1ccc(N2CCN(CCC3(Cc4ccc(F)cc4)OCCO3)CC2)nc1N
5 | 232 to 237 | CNC(=O)c1ccccc1Nc1nc(Nc2ccc3c(c2)NCCNC3=O)ncc1Cl
6 | 186 to 188 | O=C(Nc1ccc2cc(CN3CCCC3)cnc2c1F)c1ccc(-c2ccccc2)cc1
7 | 119 to 121 | FC(F)(F)c1cc(Cl)c(Oc2cc(C3CC3)[nH]n2)c(Cl)c1
8 | 189 to 190 | CCOC(=O)c1csc(Cc2ccc(NC(=O)/C=C/c3cnn(C)c3-c3ccc(F)cc3)cc2)n1
9 | 185 to 187 | Cc1ccc(S(=O)(=O)NC(=S)Nc2cnccc2N)cc1
10 | 141 to 143 | CC(=O)NCC1CC(c2ccc(N3CCCC3)c(F)c2)=NO1 (stereo not given)
11 | 216 to 217 | O=C(NN=Cc1ccccc1)c1ccc(C(F)(F)F)cc1
12 | 159 to 160 | CC(C)CC(C(=O)O)N(C)C(C)C (stereo not given)
13 | 110 | N#Cc1c(OCCN2CCOCC2)cccc1Oc1ccc(-c2cn(C3CCOCC3)c3ncnc(N)c23)cc1
14 | 154 to 159 | CC(C)(C)OC(=O)N1CCC(O)(CS(=O)(=O)NC(=O)c2cc(C(F)(F)F)cc(C(F)(F)F)c2)CC1
15 | 91 to 93 | CCCCNC(=O)[C@@H](C[C@H](O)[C@H](CC1CCCCC1)NC(=O)OC(C)(C)C)C(C)(C)O
16 | 263 to 264 | NC(=O)c1cncc(N)c1
17 | > 300 | O=C(O)c1nc2cc(O)c(O)cc2nc1C(=O)O
18 | 140 to 141 | CN(CC(=O)C(Cc1ccccc1)NC(=O)c1ccccc1)C(=O)OCc1ccccc1 (stereo not given)
19 | 210 to 212 | N#Cc1ccc(C2C3=C(CCCC3)NC3=C2C(=O)CCC3)cc1C(F)(F)F (stereo not given)
20 | 85 to 87 | Cc1oc(-c2ccccc2)nc1Cc1cccc(CC2COC(C)(C)OC2)c1
21 | 164 to 166 | COc1ccc2c(c1)C(=O)NCCS2
22 | 131 to 133 | CCCN(c1ccncc1)n1ccc2cc(OC(=O)NC(C)C)ccc21
23 | 188 to 190 | Cc1cccc(NS(=O)(=O)c2ccc(N3CCNC3=O)cc2)c1
24 | 135 to 137 | CCc1noc(CC(O)c2ccccc2)c1C(=O)NC (stereo not given)

Row | melting point [°C] | SMILES
25 | 128 to 129 | N#Cc1cc([N+](=O)[O-])ccc1Oc1c(F)c(F)c(F)c(F)c1F
26 | 214 to 215 | Cc1c(OC(F)F)ccnc1CSc1nc2ccc(O)cc2[nH]1
27 | 86 to 87 | CCCCCCCCCCCCCCOc1ccc(CC(=O)NCc2ccccn2)cc1
28 | 181 | CNC(=S)C1(c2cc(C)ccn2)CCCS1 (stereo not given)
29 | 185 | CN1CCC(=Cc2cc(C(C)(C)C)c(O)c(C(C)(C)C)c2)C1=O
30 | 195 to 200 | CCOC(=O)Cn1nc(-c2cc(Cl)ccc2O)nc1-c1cc(Cl)ccc1O
31 | 122 | CC1(C)Oc2cc3c(cc2O1)OC(C)(C)O3
32 | 207 to 209 | CCCc1c2nc(C(=O)OCC)cc(C#N)c2cc2c(=O)cc(C(=O)OCC)oc12
33 | 278 | COC(=O)c1cc(C(=O)c2c(C)c(NC(=O)c3cccc(O)c3)c3ccccn23)ccc1N
34 | 183 to 184 | COc1ccnc(C(C)Sc2nc3cc(OC(F)F)c(C)cc3[nH]2)c1 (stereo not given)
35 | 91 to 92 | COC(=O)C[C@@H](SCc1ccccc1)C(=O)O
36 | 61 to 63 | ClC1(c2cccs2)CC1c1ccccc1 (stereo not given)
37 | 126 to 127 | CCC(=O)c1ccc(-c2ncccc2S(=O)(=O)Nc2ncc(C)nc2OC)cc1
38 | 96 to 97 | CCCCCCCCc1ccc(C(=O)CCCCC(=O)O)cc1
39 | > 250 | COc1ccc(C(=O)Nc2c(Cl)cncc2Cl)c2c3cc([N+](=O)[O-])ccc3n(C)c12
40 | 64 to 66 | Nc1cccc2cc(-c3ccccc3)cnc12
41 | 106 to 108 | O=[N+]([O-])c1ccc2c(c1)SC(c1ccc(Cl)cc1Cl)O2 (stereo not given)
42 | 81 to 85 | C#CCN(C(=O)c1ccccc1C(F)(F)F)S(=O)(=O)c1cccc(C)c1
43 | 119 to 120 | CCCCc1cc(=O)c(C(=O)OCC)cn1Cc1ccc(-c2ccccc2-c2nnn[nH]2)cc1
44 | 102 to 105 | CN(C)C=CC(=O)c1cccnn1
45 | 116 to 118 | Cc1cc(C(O)(c2ccccc2)c2ccccc2)on1
46 | 126 to 128 | O=[N+]([O-])c1ccc(NC2CC2)cc1
47 | 99 to 102 | COc1ccc(-c2ccc(-c3ccc(OC)cc3)c(-c3ccc(OCc4ccccc4)cc3)n2)cc1
48 | 169 to 170 | NC(=NO)c1c(F)ccc(OCc2nc3cc(Cl)ccc3s2)c1F

Row | melting point [°C] | SMILES
49 | 97 to 99 | CCOC(=O)C1(C(=O)OCC)NC(=O)CC1c1ccccc1 (stereo not given)
50 | 229 to 230 | COc1cc2[nH]c(=O)nc(C)c2c(OC)c1OC
51 | 101 to 103 | Cc1nc(OC(C)C(=O)O)nn1-c1cccc(Cl)c1 (stereo not given)
52 | 77 to 78 | Cc1cc(C(Cl)=NO)ccc1Br
53 | 248 to 250 | CC1CN(c2nnc(N3CC(C)OC(C)C3)c3cc(-c4ccccc4)ncc23)CC(C)O1 (stereo not given)
54 | 128 to 129 | CCc1cccc(C(O)CCc2ccccc2)c1NC(=O)CC1c2ccccc2Oc2ccccc21 (stereo not given)
55 | 55 to 56 | CCCc1c(OCCCOc2ccc(C(=O)OCCCN(C)C)cc2F)ccc(C(C)=O)c1O
56 | 91 to 95 | Cc1cc(Cl)ccc1Br
57 | 159 to 161 | O=[N+]([O-])c1ccc2nc(Cl)c(Cc3ccccc3)cc2c1
58 | 405 | Cc1ccc(-n2c(-c3ccc(-c4ccc(-c5nc6c7ccccc7c7ccccc7c6n5-c5ccc(C)cc5)cc4)cc3)nc3c4ccccc4c4ccccc4c32)cc1
59 | 219 to 232 | COc1ccc(S(=O)(=O)Nc2cccc3c2Nc2ccc(F)c(O)c2CO3)cc1
60 | 147 to 150 | CCCCCCCCCCOc1ccc(C(=O)c2cccc(C(=O)O)c2)cc1Cc1nnn[nH]1
61 | 100 to 102 | CCNS(=O)(=O)c1ccccc1C1CCCCC1
62 | 67 to 70 | CCOC(=O)c1cc(CC)sc1Nc1c(Cl)cccc1[N+](=O)[O-]
63 | 194 to 195 | CNc1cccc2c1nc(-c1c(F)cccc1F)n2Cc1c(F)cccc1F
64 | 174 to 176 | Oc1cc2c(-c3ccc(Cl)cc3)csc2c(Cl)c1Cl
65 | 130 to 131 | CC(=O)Nc1nc2ccccc2c2c(CC(C)C)n(C)nc12
66 | 103 to 104 | Cc1cc(Nc2ccnc(Nc3ccc(S(=O)(=O)N4CCC(C(O)Cc5ncccc5C)CC4)cc3)n2)ccc1F (stereo not given)
67 | 130 to 135 | CC1(C)[C@@H](CN2CC[C@@H](O)C2)CC[C@@]1(C)NCC(=O)N1C[C@@H](F)C[C@H]1C#N
68 | 60 to 62 | Cc1nc(-c2cc(C)c(OCCCc3cnc(C)s3)c(C)c2)no1
69 | 92 | C#CCS(=O)c1ncc(Cl)cn1 (stereo not given)
70 | 82 to 85 | CCCCCCCCn1c(=O)c2c(Cl)cc(Cl)cc2n(Cc2ccccc2)c1=O
71 | 70 to 73 | CC(C)=CCCOc1c(-c2ccc(S(N)(=O)=O)cc2)cnn(-c2ccc(F)c(F)c2)c1=O
72 | 115 | C=CC(=O)[C@H](Cc1cc(F)cc(F)c1)NC(=O)OC(C)(C)C

Row | melting point [°C] | SMILES
73 | 294 to 295 | Cc1ccc(S(=O)(=O)c2c(N)c3nccn3c3nccnc23)cc1
74 | 189 to 190 | C=CCc1cc2c(C)c(Br)c(=O)oc2c(C)c1O
75 | 205 to 207 | CCc1cc(OCc2ccc(-c3ccccc3-c3nnnn3-c3ccc([N+](=O)[O-])cc3)cc2)c2c(n1)CCCC2
76 | 192 to 194 | COc1ccc2[nH]c(=O)n(S(=O)(=O)c3ccc(Cl)cc3)c(=O)c2c1
77 | 215 to 217 | CSc1sc(C(=O)O)c2c1-c1sc(-c3ccccc3)cc1CC2
78 | 134 | COc1ccc2c(c1)CN(Cc1ccccc1)CC(=O)N2
79 | 148 to 149 | CC(=O)N1CCC(CCC(=O)c2ccc3c(c2)CCN3C(C)=O)CC1
80 | 245 | CN(C)C(=O)c1nc(Cl)c(Cl)[nH]1
81 | 144 to 145 | N#CCc1cccc2c(=O)cc(C3(Br)CCCCC3)oc12
82 | 201 to 206 | O=C1c2ccccc2C(=O)N1OCc1c(Cl)cccc1Cl
83 | 112 to 115 | FC(F)(F)c1[nH]c(-c2ccc(Cl)cc2)cc1-c1csc(Br)c1
84 | 251 | COc1ccc2nc(-c3ccc(C)c(C)c3)n(-c3ccccc3)c2c1
85 | 184 to 188 | CCc1nnc2c(OC)nc3cc(OC)ccc3n12
86 | 139 to 141 | COc1ccc(C2(C#Cc3cccc(-c4nnc(C)o4)c3)CCC(=O)CC2)cc1OC1CCCC1
87 | 230 to 232 | C=CCNC(=O)N=C(O)c1cc(C(=O)O)ccc1C(=O)O
88 | 217 to 236 | CCCC(=O)c1c(C(C)(C)C)cc(C=[N+]([O-])C(C)(C)C)cc1C(C)(C)C
89 | 199 to 205 | CC(C)Oc1c(Br)c(Br)n(Cc2ccccc2)c1C(=O)Nc1nnn[nH]1
90 | > 300 | Cn1cnc2nc(-c3cc(C(C)(C)C)c(O)c(C(C)(C)C)c3)nn2c1=S
91 | 188 to 190 | O=[N+]([O-])c1cnc(Sc2nnc(O)n2-c2ccccc2)s1
92 | 158 to 160 | CCOC(=O)CNC(=O)c1nc2ccc(NCCCN3CCC(OC(c4ccccc4)c4ccccc4)CC3)nn2c1C
93 | 121 to 123 | CC(C)(CO)Nc1nc2c(s1)CCc1cc(C#N)ccc1-2
94 | 180 to 182 | CCCOc1ccccc1-c1nc(O)cc(C(=O)O)n1
95 | 200 to 202 | Cc1ccc2c(NCc3ccc(NC(=O)c4ccc(F)cc4)cc3)nc(N3CCN[C@@H](C)C3)nc2c1
96 | 77 to 81 | CNC(=O)C(=O)CCCCCCc1csc(-c2ccc(Cl)cc2)n1

Row | SMILES | melting point [°C]
97 | CN1CC2C3C=CC(C3)C2(c2cccc(O)c2)C1 (stereo not given) | 129 to 136
98 | CC(C)OC(=O)c1ncn2c1CN(C)C(=O)c1ccccc1-2 | 190 to 192
99 | CC(C)CCN1C(=O)C(N)C(=O)N(c2ccccc2F)c2ccccc21 (stereo not given) | 125 to 160
100 | CC(=O)C(C#N)c1ccc(F)c(F)c1 (stereo not given) | 147 to 152
